This is an account of results in publication PMC5824342 (Bioconjugate Chemistry, 2017).

For series [1] the following is noted: LC-MS, previous study of the authors; cited from earlier work.
Series [2] deals with GRPR (Homo sapiens, UniProt P30550). Description: Competitive binding assay, displacement of 125I-[Tyr4]BBN on PC-3 cells.
GRPR, sequence (P30550 whole entry): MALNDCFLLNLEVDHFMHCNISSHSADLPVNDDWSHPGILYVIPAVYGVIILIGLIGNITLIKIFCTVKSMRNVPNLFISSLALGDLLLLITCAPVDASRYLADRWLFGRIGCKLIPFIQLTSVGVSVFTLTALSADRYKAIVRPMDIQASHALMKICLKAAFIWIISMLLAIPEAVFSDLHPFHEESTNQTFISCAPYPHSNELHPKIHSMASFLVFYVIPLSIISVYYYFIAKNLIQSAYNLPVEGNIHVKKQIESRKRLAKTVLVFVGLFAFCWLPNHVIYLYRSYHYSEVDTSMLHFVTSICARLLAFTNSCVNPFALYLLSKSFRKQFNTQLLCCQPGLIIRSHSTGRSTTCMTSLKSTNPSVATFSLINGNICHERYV

`CSCC[C@H](NC(=O)[C@H](CC(C)C)NC(=O)[C@H](Cc1cnc[nH]1)NC(=O)CNC(=O)[C@@H](NC(=O)[C@H](C)NC(=O)[C@H](Cc1c[nH]c2ccccc12)NC(=O)[C@@H](N)CCC(N)=O)C(C)C)C(N)=O` [BBN7–14]: the “t1/2 of degradation during incubation in rat hepatocytes” value in series [1] is 4 min.
In series [2], `CSCC[C@H](NC(=O)[C@H](CC(C)C)NC(=O)[C@H](Cc1c[nH]cn1)NC(=O)CNC(=O)[C@@H](NC(=O)[C@H](C)NC(=O)[C@H](Cc1c[nH]c2ccccc12)NC(=O)[C@H](CCC(N)=O)NC(=O)CCCCCNC(=O)CN1CCN(CC(=O)O)CCN(CC(=O)O)CC1)C(C)C)C(N)=O` [NOTA–Aca–BBN7–14] yielded a half-maximal inhibitory concentration (IC50) of 1.8 ± 0.67 nM.
